Source: patent publication US11993591B2, “Chromen-4-one derivatives for the treatment and prophylaxis of hepatitis B virus disease” (Hoffmann-La Roche Inc., priority 2018, dated 2024)

Experiments:
[1] = tested on: HBV (extracellular HBsAg) in primary human hepatocytes; test: Cryopreserved Primary Human Hepatocytes (PHH) HBV infection assay; format: cell-based; settings: Hepatitis B virus, Hepatocyte, 216 h; extracellular HBsAg (CLIA), HBV-infected cryopreserved PHH, 9 days post-compound treatment
Description: This assay is used to confirm the anti-HBV effect of the compounds in HBV PHH infection assay. Cryopreserved PHH (BioreclamationIVT, Lot YJM) was thawed at 37° C. and gently transferred into pre-warmed InVitroGRO HT medium (BioreclamationIVT, Cat. S03317).
The mixture was centrifuged at 70 relative centrifugal force (RCF) for 3 mins at RT, and the supernatant was discarded. Pre-warmed InVitroGRO CP medium (BioreclamationIVT, Cat #S03316) was added to the cell pellet to gently re-suspend cells. The cells were seeded at the density of 5.8×10^4 cells per well to collagen I coated 96-well plate (Gibco, Cat. A1142803) with the InVitroGRO CP medium. All plates were incubated at 37° C. with 5% CO2 and 85% humidity.
At 20 hours after plating, the medium was changed to PHH culture medium (Dulbecco's Modified Eagle Medium (DMEM)/F12 (1:1) (Gibco, Cat. 11320-033), 10% fetal bovine serum (Gibco Cat. 10099141), 100 U/mL penicillin, 100 μg/mL streptomycin (Gibco, Cat. 151401-122), […] (Invitrogen Cat. PHG0311L), 20 ng/mL dexamethasone (Sigma, Cat. D4902) and 250 ng/mL human recombinant insulin (Gibco, Cat. 12585-014)). And the cells were incubated at 37° C. with 5% CO2 and 85% humidity for 4 hours. The medium was then changed to pre-warmed PHH culture medium containing 4% polyethylene glycol (PEG) MW8000 (Sigma, Cat. P1458-50ML) and 1% DMSO (Sigma, Cat. D2650). 5.8×10^6 genomic equivalents of HBV were added into the medium.
At 24 hours post-infection, the cells were gently washed with PBS and refreshed with PHH culture medium supplemented with 1% DMSO, and 0.25 mg/mL Matrix gel (Corning, Cat. 356237) at 200 μL per well. All plates were immediately placed in at 37° C. CO2 incubator. 24 hours later, serial dilutions of compounds made with DMSO were further diluted with the same culture medium (PHH culture medium supplemented with 1% DMSO and 0.25 mg/mL Matrix gel as described above) before they were added to the cells to reach desired final compound concentrations and 1% DMSO concentration. The medium containing the compounds were refreshed every three days.
At 9 days post-compound treatment, extracellular HBsAg level were measured with Chemiluminescence Immuno Assay (CLIA) kit (Autobio, HBsAg Quantitative CLIA). Extracellular HBV DNA was extracted by MagNA Pure 96 system (Roche) and then determined by quantitative PCR with the following primers and probe: […]
HBsAg IC50 and HBV DNA IC50 values were derived from the dose-response curve using 4 parameter logistic curve fit method.

[2] = tested on: HBV cccDNA (HBeAg level) in HepDES19 cells; test: Engineered HepDES19 primary screen assay (HBeAg as surrogate marker for cccDNA); format: cell-based; settings: Hepatitis B virus, HepDES19, 120 h
Text: The assay was employed to screen for novel cccDNA inhibitors. HepDES19 is a cccDNA-producing cell line. In this cell line, HBeAg in the cell culture supernatant as surrogate marker, as HBeAg production depends on cccDNA level and activity. HepDES19 is an engineered cell line which contains a 1.1 unit length HBV genome, and pgRNA transcription from the transgene is controlled by Tetracycline (Tet). In the absence of Tet, pgRNA transcription will be induced, but HBV e antigen (HBeAg) could not be produced from this pgRNA due to very short leader sequence before the HBeAg start codon and the start codon is disrupted. Only after cccDNA is formed, the missing leader sequence and start codon mutation would be restored from the 3′-terminal redundancy of pgRNA, and then HBeAg could be synthesized. Therefore, HBeAg could be used as a surrogate marker for cccDNA (Zhou, T. et al., Antiviral Res. (2006), 72(2), 116-124; Guo, H. et al., J. Virol. (2007), 81(22), 12472-12484).
HepDES19 cells were seeded at 2×10^6 cells per T150 flask and cultured with the culture medium (Dulbecco's Modified Eagle Medium: Nutrient Mixture F-12 [DMEM-F12, Gibco Cat. 11320-82], 10% Fetal Bovine Serum [FBS, Clontech Cat. 631101], 0.1 mM Non-Essential Amino Acids Solution [NEAA, Gibco Cat. 11140-050], 50 μg/mL Penicillin-Streptomycin [PS, Invitrogen Cat. 15140-163], 500 μg/mL Geneticin [G418, Invitrogen Cat. 10131-027]) containing 3 μg/mL Tet (Sigma, Cat. 87128) for 5 days. Cells were then seeded at 4×10^6 cells per T150 in the same culture medium as described above in the absence of Tet for 8 days. Cells were then harvested and frozen at density of 2×10^6 cells per mL. For compound testing, the frozen cells were thawed and seeded into 96-well plates at a density of 6×10^4 cells per well. At 24 hours after seeding, half log serial dilutions of compounds made with Dimethyl sulfoxide (DMSO, Sigma, Cat. D2650) were further diluted with the same culture medium as described above before they were added to the cells to reach desired final compound concentrations and 1% DMSO concentration. Plates were then incubated at 37° C. for another 5 days before measurement of HBeAg level and cell viability. Intracellular HBeAg level were measured with enzyme-linked immunosorbent assay (ELISA) kit (Shanghai Kehua Diagnostic Medical Products Co., Ltd). Cell viability was assessed using Cell Counting Kit-8 (Donjindo, Cat. CK04-20). IC50 values were derived from the dose-response curve using 4 parameter logistic curve fit method.
The compounds of the present invention were tested for their capacity to inhibit extracellular HBeAg level as described herein.

Structure (SMILES)	IC50 [1] [µM]	IC50 [2] [µM]
O=C(c1cc(=O)c2cccc(Cl)c2o1)N1Cc2ccc(Br)cc2C1 [Example 4, 2-(5-bromoisoindoline-2-carbonyl)-8-chloro-chromen-4-one]	6.58	3.6
Cc1cc(Cl)ccc1NC(=O)c1oc2ccc(Cl)cc2c(=O)c1C [Example 3, 6-chloro-N-(4-chloro-2-methylphenyl)-3-methyl-4-oxo-chromene-2-carboxamide]	6.47	0.64
O=C(Nc1ccc(Cl)cc1OC1CC(C(=O)O)C1)c1cc(=O)c2cccc(Cl)c2o1 (centres unmarked) [Example 7, 3-(5-chloro-2-(8-chloro-4-oxo-chromene-2-carboxamido)phenoxy)cyclobutane-1-carboxylic Acid]	10	1.66
Cc1cc(OCCOC2CC(C(=O)O)C2)ccc1NC(=O)c1cc(=O)c2cccc(Cl)c2o1 (centres unmarked) [Example 2, 3-(2-(4-(8-chloro-4-oxo-chromene-2-carboxamido)-3-methylphenoxy)ethoxy)cyclobutanecarboxylic Acid]	4.36	–
O=C(O)COCCOC1CC2CCC(C1)N2c1cc(=O)c2cccc(Cl)c2o1 (centres unmarked) [Example 39, 2-(2-((8-(8-chloro-4-oxo-chromen-2-yl)-8-azabicyclo[3.2.1]octan-3-yl)oxy)ethoxy)acetic Acid]	38.5	–
